Columns and labels:
Type in all cases: in vivo
Avena fatua (AVEFA) = experiment: B1 Pre-emergence herbicidal activity; design: key: 5=total damage to plant; 0=no damage to plant; conditions: pre-emergence application, rate 1000 g/ha, evaluated after 13 days
Description: (§1) Seeds of a variety of test species were sown in standard soil in pots: Triticum aestivium (TRZAW), Avena fatua (AVEFA), Alopecurus myosuroides (ALOMY), Echinochloa crus-galli (ECHCG), Lolium perenne (LOLPE), Zea Mays (ZEAMX), Abutilon theophrasti (ABUTH), Amaranthus retroflexus (AMARE) and Setaria fabenr (SETFA). After cultivation for one day (pre-emergence) under controlled conditions in a glasshouse (at 24/16° C., day/night; 14 hours light; 65% humidity), the plants were sprayed with an aqueous spray solution derived from the formulation of the technical active ingredient in acetone I water (50:50) solution containing 0.5% Tween 20 (polyoxyethelyene sorbitan monolaurate, CAS RN 9005-64-5). The test plants were then grown in a glasshouse under controlled conditions (at 24/16° C., day/night; 14 hours light; 65% humidity) and watered twice daily. After 13 days, the test was evaluated (5=total damage to plant; 0=no damage to plant).

[1] = test system: Alopecurus myosuroides (ALOMY); experiment: B1 Pre-emergence herbicidal activity; design: key: 5=total damage to plant; 0=no damage to plant; conditions: pre-emergence application, rate 1000 g/ha, evaluated after 13 days
Description: as §1

[2] = test system: Triticum aestivium (TRZAW); experiment: B1 Pre-emergence herbicidal activity; design: key: 5=total damage to plant; 0=no damage to plant; conditions: pre-emergence application, rate 1000 g/ha, evaluated after 13 days
Description: as §1

[3] = test system: Echinochloa crus-galli (ECHCG); experiment: B2 Post-emergence herbicidal activity; conditions: post-emergence application, rate 1000 g/ha, evaluated after 13 days
Description: (§2) Seeds of a variety of test species were sown in standard soil in pots: Triticum aestivium (TRZAW), Avena fatua (AVEFA), Alopecurus myosuroides (ALOMY), Echinochloa crus-galli (ECHCG), Lolium perenne (LOLPE), Zea Mays (ZEAMX), Abutilon theophrasti (ABUTH), Amaranthus retroflexus (AMARE) and Setaria fabenri (SETFA). After 8 days cultivation (post-emergence) under controlled conditions in a glasshouse (at 24/16° C., day/night; 14 hours light; 65% humidity), the plants were sprayed with an aqueous spray solution derived from the formulation of the technical active ingredient in acetone I water (50:50) solution containing 0.5% Tween 20 (polyoxyethelyene sorbitan monolaurate, CAS RN 9005-64-5). The test plants were then grown in a glasshouse under controlled conditions (at 24/16° C., day/night; 14 hours light; 65% humidity) and watered twice daily. After 13 days, the test was evaluated (5=total damage to plant; 0=no damage to plant).

[4] = test system: Echinochloa crus-galli (ECHCG); experiment: B1 Pre-emergence herbicidal activity; conditions: pre-emergence application, rate 1000 g/ha, evaluated after 13 days
Description: as §1

Lolium perenne (LOLPE) = experiment: B1 Pre-emergence herbicidal activity; design: key to Pre-emergence herbicidal activity, LOLPE (damage score 0-5): 5=total damage to plant; 0=no damage to plant; conditions: pre-emergence application, rate 1000 g/ha, evaluated after 13 days
Description: as §1

Setaria fabenri (SETFA) = experiment: B2 Post-emergence herbicidal activity; design: key: 5=total damage to plant; 0=no damage to plant; conditions: post-emergence application, rate 1000 g/ha, evaluated after 13 days
Description: as §2

[5] = test system: Alopecurus myosuroides (ALOMY); experiment: B2 Post-emergence herbicidal activity; design: key: 5=total damage to plant; 0=no damage to plant; conditions: post-emergence application, rate 1000 g/ha, evaluated after 13 days
Description: as §2

[6] = test system: Triticum aestivium (TRZAW); experiment: B2 Post-emergence herbicidal activity; design: key: 5=total damage to plant; 0=no damage to plant; conditions: post-emergence application, rate 1000 g/ha, evaluated after 13 days
Description: as §2

Setaria fabenr (SETFA) = experiment: B1 Pre-emergence herbicidal activity; design: key to Pre-emergence herbicidal activity, SETFA (damage score 0-5): 5=total damage to plant; 0=no damage to plant; conditions: pre-emergence application, rate 1000 g/ha, evaluated after 13 days
Description: as §1

Structure (SMILES) | Pre-emergence herbicidal activity, AVEFA (damage score 0-5) (Avena fatua (AVEFA)) | Pre-emergence herbicidal activity, ALOMY (damage score 0-5) [1] | Pre-emergence herbicidal activity, TRAZW (damage score 0-5) [2] | Post-emergence herbicidal activity, ECHCG (damage score 0-5) [3] | Pre-emergence herbicidal activity, ECHCG (damage score 0-5) [4] | Pre-emergence herbicidal activity, LOLPE (damage score 0-5) (Lolium perenne (LOLPE)) | Post-emergence herbicidal activity, SETFA (damage score 0-5) (Setaria fabenri (SETFA)) | Post-emergence herbicidal activity, ALOMY (damage score 0-5) [5] | Post-emergence herbicidal activity, TRAZW (damage score 0-5) [6] | Pre-emergence herbicidal activity, SETFA (damage score 0-5) (Setaria fabenr (SETFA))
CCC(=O)N(CCOC)c1ccc(-c2cncc(F)c2)nc1C(F)(F)F [Compound C96] | 1 | 1 | 0 | 3 | 3 | 0 | 4 | 0 | 0 | 5
CCC(=O)N(c1ccc(-c2cncc(F)c2)nc1C(F)(F)F)C(C)C [Compound C100] | 1 | 0 | 0 | 4 | 3 | 1 | 5 | 0 | 0 | 5
COCC(=O)N(CC(C)C)c1ccc(-c2cncc(F)c2)nc1C(F)(F)F [Compound C79] | 1 | 0 | 0 | 3 | 3 | 2 | 3 | 0 | 0 | 5
CCC(=O)N(CC(C)C)c1ccc(-c2cncc(F)c2)nc1C(F)(F)F [Compound C97] | 0 | 0 | 0 | 2 | 1 | 0 | 3 | 0 | 0 | 3
CC(C)C(=O)N(COCC(C)(C)C)c1ccc(-c2cncc(F)c2)nc1C(F)(F)F [Compound C89] | 1 | 0 | 0 | 4 | 3 | 0 | 4 | 0 | 0 | 4
CCC(=O)N(Cc1cnc(Cl)s1)c1ccc(-c2cncc(F)c2)nc1C(F)(F)F [Compound C102] | 1 | 0 | 0 | 2 | 2 | 0 | 2 | 0 | 0 | 4
CC(C)(C)COCN(C(=O)c1ccccc1)c1ccc(-c2cncc(F)c2)nc1C(F)(F)F [Compound C76] | 0 | 0 | 0 | 3 | 1 | 0 | 4 | 0 | 1 | 5

— patent publication US11230538B2, “Herbicides” (SYNGENTA PARTICIPATIONS AG, priority 2016, dated 2022)
